The values that follow are results of earlier work, collected in patent US20180066081A1, “SUBSTITUTED CYCLIC ETHER POLYMERS AND CONJUGATES AND USES THEREOF” (UNIVERSITY OF IOWA RESEARCH FOUNDATION, priority 2015, published 2018).

Molecules are shown by their SMILES.

For the series the following is noted: chlorhexidine rinses (e.g., PERIDEX, chlorhexidine gluconate 0.12%); from package insert.

Consider `[H]/N=C(\N/C(=N/[H])NCCCCCCNC(=N)NC(=N)Nc1ccc(Cl)cc1)Nc1ccc(Cl)cc1` [chlorhexidine], for which the “active compound retained in the oral cavity following application” value is on record as “about 30%”.
